The values below come from patent US11286268B1, “EIF4E-inhibiting compounds and methods” (EFFECTOR THERAPEUTICS, INC., priority 2019, dated 2022).

The test has as its target recombinant eIF4E (Homo sapiens (Human), UniProt P06730). Description: Fluorescence polarization competition assay for eIF4E binding potency. In a few lines:
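Protein and fluorescent cap-analog probe (EDA-m7GDP-ATTO-550) were mixed first for 5 min, after which serially diluted compound was added to final 75 nM eIF4E, 20 nM probe, 1% DMSO. Reactions equilibrated 30 min at room temperature before polarization was measured.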
(In general: In fluorescence polarisation assays a small probe gives low polarisation when free and higher when bound to something large.)

Where [1] appears, read: fluorescence polarization competition, 75 nM recombinant eIF4E, 20 nM EDA-m7GDP-ATTO-550, IC50 class, read-out: elF4E FP.
Setting [2] is: inhibition of eIF4E/EDA-m7GDP-ATTO-550 binding by 50%, Table 4B calculated values, read-out: IC50.
The mark [3] stands for this setting: inhibition of eIF4E/EDA-m7GDP-ATTO-550 binding, calculated IC50 values, Table 4B, read-out: IC50.

Molecules are shown by their SMILES. Read-outs that look alike come from different tables or passages of the source. A value given as a limit tells only on which side of the number the result lay.

recombinant eIF4E, sequence (P06730 whole entry): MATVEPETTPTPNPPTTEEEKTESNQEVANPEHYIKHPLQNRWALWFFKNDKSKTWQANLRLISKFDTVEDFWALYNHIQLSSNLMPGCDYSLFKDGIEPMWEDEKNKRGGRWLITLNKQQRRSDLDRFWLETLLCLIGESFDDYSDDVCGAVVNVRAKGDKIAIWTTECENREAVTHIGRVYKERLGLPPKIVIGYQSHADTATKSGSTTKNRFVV

As to `Cc1nc2cc(OC(F)F)c(C(F)(F)F)c(C#N)c2c(=O)n1CCOc1ccc(Cl)cc1-c1ccnc2c(C(=O)O)csc12` [compound 540], the IC50 by setting is: under setting [1], less than 50 nM; under setting [2], 14 nM. As for `Cc1nc2cc(Cl)c(Cl)c(C#N)c2c(=O)n1C/C=C/c1ccc(Cl)cc1-c1ccnc2c(C(=O)O)csc12` [compound 256], the IC50 is, setting by setting: under setting [1], 50 to 1000 nM; under setting [2], 104 nM. For `Cc1nc2c(F)cc(Cl)c(C#N)c2c(=O)n1CCOc1ccc(Cl)cc1-c1ccnc2c(C(=O)O)csc12` [compound 407], in that order: less than 50 nM and 33.1 nM. Take `Cc1nc2cnc(N(C)C3CCN(CCOC(F)F)CC3)c(C#N)c2c(=O)n1CC#Cc1ccc(Cl)cc1-c1ccnc2c(C(=O)O)csc12` [compound 1503]: the IC50 under setting [3] is 19.2 nM. Take `Cc1cc2cc(C(F)(F)F)cc(C#N)c2c(O)c1CCOc1ccc(Cl)cc1-c1ccnc2c(C(=O)O)csc12` [compound 1976]: the IC50 under setting [3] is 1850 nM.

`Cc1nc2cnc(CC3CCN(CC(F)F)CC3)c(C#N)c2c(=O)n1CCOc1ccc(Cl)cc1-c1ccnc2c(C(=O)O)csc12` [compound 1484]: the IC50 under setting [3] was 22.9 nM. Take `CCN(c1ncc2nc(C)n(CC#Cc3ccc(Cl)cc3-c3ccnc4c(C(=O)NS(=O)(=O)c5ccccn5)csc34)c(=O)c2c1C#N)C1CCN([C@H]2C[C@H](OC(F)F)C2)CC1` [compound 1771]: the IC50 under setting [3] is 26.6 nM. Regarding `Cc1cc(-c2cc(Cl)ccc2OCCn2c(C)nc3cc(C(F)(F)F)c(-c4cc(F)ccn4)c(C#N)c3c2=O)c2scc(C(=O)O)c2n1` [compound 777], the IC50 was 50 to 1000 nM under setting [1] and 53.3 nM under setting [2]. Consider `CCc1cc(-c2cc(Cl)ccc2OCCn2c(C)nc3cnc(C4CC4)c(C#N)c3c2=O)c2scc(C(=O)O)c2n1` [compound 793], for which the IC50 reads like this: under setting [1], less than 50 nM; under setting [2], 4.81 nM. As to `Cc1nc(N2CCN(C)C3CC32)c(C#N)c2c(=O)n(CC#Cc3ccc(Cl)cc3-c3ccnc4c(C(=O)O)csc34)c(C)nc12` (stereo not drawn) [compound 656], the IC50 is less than 50 nM under setting [1] and 33.4 nM under setting [2].

Turning to `Cc1nc2cc(C(F)(F)F)c(N3CCN(C)CC3)c(C#N)c2c(=O)n1CCOc1ccc(Cl)cc1-c1ccnc2cnsc12` [compound 1251], the IC50 under setting [3] is 4.77 nM. Same read-out and setting: as for `CCN(c1ncc2nc(C)n(CC#Cc3ccc(Cl)cc3-c3ccnc4c(C(=O)NS(=O)(=O)CC#N)csc34)c(=O)c2c1C#N)C1CCN(C2COC2)CC1` [compound 1735], the figure is 33.6 nM. Turning to `Cc1cc(-c2cc(Cl)ccc2OCCn2c(C)nc3cnc(C4CCCC(F)(F)C4)c(C#N)c3c2=O)c2scc(C(=O)O)c2n1` (stereo not drawn) [compound 931], the IC50 under setting [1] was less than 50 nM and the IC50 under setting [2] was 13.7 nM. As for `Cc1cc(-c2cc(Cl)ccc2OCCn2c(C)nc3cc(C(F)(F)F)c(-c4cnc(C)nc4C)c(C#N)c3c2=O)c2scc(C(=O)O)c2n1` [compound 437], the IC50 was less than 50 nM under setting [1] and 6.21 nM under setting [2].

On to `Cc1nc2cnc(N(C)C3CCN(CC(F)(F)F)CC3)c(C#N)c2c(=O)n1CC#Cc1ccc(Cl)cc1-c1ccnc2c(C(=O)NS(=O)(=O)c3ccc(F)cc3F)csc12` [compound 1550], for which the IC50 under setting [3] is 22.9 nM.

`Cc1cc(-c2cc(Cl)ccc2OCCn2c(C)nc3cc(F)c(C4=CCCC4)c(C#N)c3c2=O)c2scc(C(=O)O)c2n1` [compound 805]: the IC50 under setting [1] was less than 50 nM and the IC50 under setting [2] was 13.6 nM. For `Cc1nc2cnc(N(C)C3CCN(C(C)C(F)F)CC3)c(C#N)c2c(=O)n1CCOc1ccc(Cl)cc1-c1ccnc2c(C(=O)O)csc12` (stereo not drawn) [compound 1662], under setting [3], the IC50 is 22.1 nM.

In the case of `Cc1cc(-c2cc(Cl)ccc2OCCn2c(C)nc3cnc(NCC(F)F)c(C#N)c3c2=O)c2scc(C(=O)O)c2n1` [compound 974], the IC50 runs as follows: under setting [1], less than 50 nM; under setting [2], 23.6 nM. As for `Cc1cc(-c2cc(Cl)ccc2OCCn2c(C)nc3cc(C(F)(F)F)c(-c4ccn(C)n4)c(C#N)c3c2=O)c2scc(C(=O)O)c2n1` [compound 779], the IC50 is less than 50 nM under setting [1] and 9.54 nM under setting [2].
